Data from ChEMBL document CHEMBL3885881, “DrugMatrix”.

Species on record: Rattus norvegicus
Experiment: DrugMatrix - Regimen: Daily Repeat
Format: toxicity, organism-based, Sprague-Dawley
Set-up: regimen Daily Repeat, gender Male, age 6-8 weeks
Settings: in vivo, po, route oral GAVAGE, vehicle .5 % CMC; for ABSOLUTE BASOPHIL / ABSOLUTE EOSINOPHIL / ABSOLUTE LYMPHOCYTE / ABSOLUTE MONOCYTE / ABSOLUTE SEGMENTED NEUTROPHIL / BASOPHIL / EOSINOPHIL / ERYTHROCYTE COUNT / HEMATOCRIT / HEMOGLOBIN / LEUKOCYTE COUNT / LYMPHOCYTE / MEAN CORPUSCULAR HEMOGLOBIN / MEAN CORPUSCULAR HEMOGLOBIN CONCENTRATION / MONOCYTE / NEUTROPHIL / NUCLEATED RED BLOOD CELLS / PLATELET COUNT: tissue Blood; for ALANINE AMINOTRANSFERASE / ALBUMIN / ALKALINE PHOSPHATASE / ASPARTATE AMINOTRANSFERASE / BLOOD UREA NITROGEN / CARBON DIOXIDE / CHLORIDE / CHOLESTEROL / CREATINE PHOSPHOKINASE / CREATININE / GLUCOSE / LACTATE DEHYDROGENASE / LIPASE / PHOSPHORUS / POTASSIUM / SODIUM / TOTAL BILIRUBIN / TOTAL PROTEIN / URIC ACID: tissue Plasma
[1] = 0 mg/kg, 72 h, dose level Control, time 3 day
[2] = 0 mg/kg, 120 h, dose level Control, time 5 day
[3] = 3 mg/kg, 72 h, dose level Low, time 3 day

SMILES: COc1cc2nc(N3CCN(C(=O)c4ccco4)CC3)nc(N)c2cc1OC [PRAZOSIN]
- ABSOLUTE BASOPHIL [1]: 0 CELLS/uL
- ABSOLUTE EOSINOPHIL [1]: 171.33 CELLS/uL
- ABSOLUTE LYMPHOCYTE [1]: 13776.5 CELLS/uL
- ABSOLUTE MONOCYTE [1]: 180.83 CELLS/uL
- ABSOLUTE SEGMENTED NEUTROPHIL [1]: 1121.33 CELLS/uL
- BASOPHIL [1]: 0%
- EOSINOPHIL [1]: 1%
- ERYTHROCYTE COUNT [1]: 5.56 x10E6/uL
- HEMATOCRIT [1]: 34.75%
- HEMOGLOBIN [1]: 13.68 G/DL
- LEUKOCYTE COUNT [1]: 15.25 x10E3/uL
- LYMPHOCYTE [1]: 90.17%
- MEAN CORPUSCULAR HEMOGLOBIN [1]: 24.6 pg
- MEAN CORPUSCULAR HEMOGLOBIN CONCENTRATION [1]: 39.4 G/DL
- MONOCYTE [1]: 1.17%
- NEUTROPHIL [1]: 7.67%
- NUCLEATED RED BLOOD CELLS [1]: 0 /100WBC
- PLATELET COUNT [1]: 1342 x10E3/uL
- ALANINE AMINOTRANSFERASE [1]: 49.67 u/L
- ALBUMIN [1]: 4.15 G/DL
- ALKALINE PHOSPHATASE [1]: 346.83 u/L
- ASPARTATE AMINOTRANSFERASE [1]: 108.17 u/L
- BLOOD UREA NITROGEN [1]: 17.33 mg/dL
- CARBON DIOXIDE [1]: 25 mmol/L
- CHLORIDE [1]: 100.83 MEQ/L
- CHOLESTEROL [1]: 66.83 mg/dL
- CREATINE PHOSPHOKINASE [1]: 788 u/L
- CREATININE [1]: 0.18 mg/dL
- GLUCOSE [1]: 151.67 mg/dL
- LACTATE DEHYDROGENASE [1]: 982.5 u/L
- LIPASE [1]: 10.33 u/L
- PHOSPHORUS [1]: 11.23 mg/dL
- POTASSIUM [1]: 6.37 MEQ/L
- SODIUM [1]: 141.02 MEQ/L
- TOTAL BILIRUBIN [1]: 0.18 mg/dL
- TOTAL PROTEIN [1]: 5.9 G/DL
- URIC ACID [1]: 1.8 mg/dL
- ABSOLUTE BASOPHIL [2]: 0 CELLS/uL
- ABSOLUTE EOSINOPHIL [2]: 69 CELLS/uL
- ABSOLUTE LYMPHOCYTE [2]: 13632.83 CELLS/uL
- ABSOLUTE MONOCYTE [2]: 139.83 CELLS/uL
- ABSOLUTE SEGMENTED NEUTROPHIL [2]: 1225 CELLS/uL
- BASOPHIL [2]: 0%
- EOSINOPHIL [2]: 0.33%
- ERYTHROCYTE COUNT [2]: 5.52 x10E6/uL
- HEMATOCRIT [2]: 33.98%
- HEMOGLOBIN [2]: 13.22 G/DL
- LEUKOCYTE COUNT [2]: 15.07 x10E3/uL
- LYMPHOCYTE [2]: 90.83%
- MEAN CORPUSCULAR HEMOGLOBIN [2]: 23.95 pg
- MEAN CORPUSCULAR HEMOGLOBIN CONCENTRATION [2]: 38.9 G/DL
- MONOCYTE [2]: 0.83%
- NEUTROPHIL [2]: 8%
- NUCLEATED RED BLOOD CELLS [2]: 0 /100WBC
- PLATELET COUNT [2]: 1196 x10E3/uL
- ALANINE AMINOTRANSFERASE [2]: 49.17 u/L
- ALBUMIN [2]: 4.2 G/DL
- ALKALINE PHOSPHATASE [2]: 352.33 u/L
- ASPARTATE AMINOTRANSFERASE [2]: 89.67 u/L
- BLOOD UREA NITROGEN [2]: 18 mg/dL
- CARBON DIOXIDE [2]: 27.67 mmol/L
- CHLORIDE [2]: 101 MEQ/L
- CHOLESTEROL [2]: 72.83 mg/dL
- CREATINE PHOSPHOKINASE [2]: 417.5 u/L
- CREATININE [2]: 0.18 mg/dL
- GLUCOSE [2]: 150.5 mg/dL
- LACTATE DEHYDROGENASE [2]: 517.33 u/L
- LIPASE [2]: 9 u/L
- PHOSPHORUS [2]: 11.87 mg/dL
- POTASSIUM [2]: 6.57 MEQ/L
- SODIUM [2]: 143.62 MEQ/L
- TOTAL BILIRUBIN [2]: 0.2 mg/dL
- TOTAL PROTEIN [2]: 6.08 G/DL
- URIC ACID [2]: 1.45 mg/dL
- ABSOLUTE BASOPHIL [3]: 0 CELLS/uL
- ABSOLUTE EOSINOPHIL [3]: 118.67 CELLS/uL
- ABSOLUTE LYMPHOCYTE [3]: 13015.33 CELLS/uL
- ABSOLUTE MONOCYTE [3]: 208 CELLS/uL
- ABSOLUTE SEGMENTED NEUTROPHIL [3]: 1224.67 CELLS/uL
- BASOPHIL [3]: 0%
- EOSINOPHIL [3]: 0.67%
- ERYTHROCYTE COUNT [3]: 5.43 x10E6/uL
- HEMATOCRIT [3]: 33.53%
- HEMOGLOBIN [3]: 13.07 G/DL
- LEUKOCYTE COUNT [3]: 14.57 x10E3/uL
- LYMPHOCYTE [3]: 89.67%
- MEAN CORPUSCULAR HEMOGLOBIN [3]: 24.1 pg
- MEAN CORPUSCULAR HEMOGLOBIN CONCENTRATION [3]: 38.97 G/DL
- MONOCYTE [3]: 1.33%
- NEUTROPHIL [3]: 8.33%
- NUCLEATED RED BLOOD CELLS [3]: 0 /100WBC
- PLATELET COUNT [3]: 1384.67 x10E3/uL
- ALANINE AMINOTRANSFERASE [3]: 59.67 u/L
- ALBUMIN [3]: 3.97 G/DL
- ALKALINE PHOSPHATASE [3]: 505 u/L
- ASPARTATE AMINOTRANSFERASE [3]: 74.67 u/L
- BLOOD UREA NITROGEN [3]: 13.33 mg/dL
- CARBON DIOXIDE [3]: 24.33 mmol/L
- CHLORIDE [3]: 102 MEQ/L
- CHOLESTEROL [3]: 70 mg/dL
- CREATINE PHOSPHOKINASE [3]: 271 u/L
- CREATININE [3]: 0.22 mg/dL
- GLUCOSE [3]: 128.67 mg/dL
- LACTATE DEHYDROGENASE [3]: 254.33 u/L
- LIPASE [3]: 10.67 u/L
- PHOSPHORUS [3]: 12.33 mg/dL
- POTASSIUM [3]: 6.67 MEQ/L
- SODIUM [3]: 142.25 MEQ/L
- TOTAL BILIRUBIN [3]: 0.2 mg/dL
- TOTAL PROTEIN [3]: 5.63 G/DL
- URIC ACID [3]: 1.43 mg/dL
